Key:
[1] = target: EGFR L858R/T790M double mutant (H1975) (Homo sapiens (Human), UniProt P00533, L858R/T790M); assay: EGFR protein degradation assay (Western blot); assay type: cell-based; details: 72 hours, 300 nM to 10 nM
In short: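 Cells carrying the relevant EGFR form were plated at 300,000 cells per well in 6-well plates and left to attach overnight. After washing in ice-cold PBS, cells were lysed in 400 μl lysis buffer with protease inhibitors, scraped, and clarified at 10 000 rpm for 10 minutes. EGFR levels were then assessed by Western blot with tubulin as loading control.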

HER2 InsYVMA = HER2 InsYVMA (Homo sapiens (Human), UniProt P04626, INS775YVMA); assay: TR-FRET assay for ERBB kinases; assay type: biochemical; details: geometric mean if measured more than once
Sequence of HER2 InsYVMA (P04626 other isoform, or with tags, fused parts or gaps del 1-675/ins YVMA behind 775 limits assumed): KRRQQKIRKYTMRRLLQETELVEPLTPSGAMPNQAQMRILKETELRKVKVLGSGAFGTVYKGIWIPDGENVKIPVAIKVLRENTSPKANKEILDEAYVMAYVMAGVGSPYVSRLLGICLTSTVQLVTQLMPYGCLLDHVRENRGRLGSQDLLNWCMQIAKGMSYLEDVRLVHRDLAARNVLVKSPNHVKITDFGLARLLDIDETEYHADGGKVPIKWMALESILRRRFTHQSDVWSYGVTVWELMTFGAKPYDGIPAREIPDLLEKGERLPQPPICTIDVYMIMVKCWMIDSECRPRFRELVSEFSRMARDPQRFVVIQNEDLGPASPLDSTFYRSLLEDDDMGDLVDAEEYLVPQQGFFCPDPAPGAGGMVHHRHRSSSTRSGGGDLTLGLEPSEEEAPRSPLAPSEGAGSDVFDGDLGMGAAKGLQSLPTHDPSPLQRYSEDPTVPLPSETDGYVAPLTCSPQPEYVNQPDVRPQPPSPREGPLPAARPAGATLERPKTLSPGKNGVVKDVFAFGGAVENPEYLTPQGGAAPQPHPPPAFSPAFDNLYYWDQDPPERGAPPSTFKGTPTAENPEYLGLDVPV
Procedure: TR-FRET Assay for ERBB Kinases
All compounds and PROTACs were serially diluted in three-fold increments using 100% DMSO, followed by an intermediate 10-fold dilution using Buffer A (50 mM HEPES, pH 7.5, 50 mM NaCl, 10 mM MgCl2, 1 mM DTT, and 0.1% Pluronic F-68). Two microliters of serially diluted compound or PROTAC were then transferred to black 384-well Proxiplates (PerkinElmer, #6008260) using an Integra Viaflo96. Next, 10 uL of protein kinase in Buffer A was added to each well of the assay plate and pre-incubated with compound for 10 minutes. Kinase reactions were then initiated by addition of 5 uL substrate mix containing 3 mM ATP and 30 uM fluorescein-labeled Poly-GluTyr (Thermo Fisher, #PV3610) in Buffer A and allowed to proceed for 10 minutes at room temperature. Reactions were quenched by addition of a 5 uL mixture containing 5 nM LanthaScreen® Tb-pY20 Antibody (Thermo Fisher, #PV3552) and 40 mM EDTA in Buffer A. Assay plates were then read using a Synergy2 (Biotek Instruments, Winooski, Vt.) via excitation thru a 340/20 nm bandpass filter and emission collected thru 490/10 nm (donor) and 520/25 nm (acceptor) bandpass filters. The final kinase concentrations used for each 15 uL reaction were as follows: 0.2 nM EGFR Exon20NPG (SignalChem, #E10-132GG), 0.1 nM wild type EGFR (BPS Bioscience, #40187), 0.3 nM EGFR L858R/T790M/C797S (BPS Bioscience, #40351), 0.1 nM EGFR L858R (BPS Bioscience, #40189), 0.4 nM L858R/T790M (BPS Bioscience, #40350), InM EGFR Dell9 (SignalChem, #E10-122JG), 10 nM EGFR Dell9 T790M (SignalChem, #E10-122KG), 0.3 nM Her2 (BPS Bioscience, #40230), 15 nM Her2 InsYVMA (SignalChem, #E27-13BG).

EGFR WT = EGFR WT (Homo sapiens (Human), UniProt P00533); assay: TR-FRET assay for ERBB kinases; assay type: biochemical; details: geometric mean if measured more than once
In short: (§1)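 Kinase pre-incubated 10 min with compound in pH 7.5 HEPES buffer with MgCl2 and DTT, then reacted 10 min at room temperature with fluorescein-poly-GluTyr and ATP (substrate mix at 3 mM ATP, 30 uM peptide). EDTA-quenched; Tb-pY20 antibody TR-FRET read at 520/490 nm.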

EGFR L858R/T790M = EGFR L858R/T790M (Homo sapiens (Human), UniProt P00533, L858R/T790M); assay: TR-FRET assay for ERBB kinases; assay type: biochemical; details: geometric mean if measured more than once
In short: as §1

EGFR L858R/T790M/C797S = EGFR L858R/T790M/C797S (Homo sapiens (Human), UniProt P00533, C797S/L858R/T790M); assay: TR-FRET assay for ERBB kinases; assay type: biochemical; details: geometric mean if measured more than once
In short: as §1

EGFR L858R = EGFR L858R (Homo sapiens (Human), UniProt P00533, L858R); assay: TR-FRET assay for ERBB kinases; assay type: biochemical; details: geometric mean if measured more than once
In short: (§2)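 Compounds pre-incubated 10 min with kinase in HEPES pH 7.5 buffer (MgCl2, DTT, Pluronic), then reaction started with substrate mix (3 mM ATP, 30 µM fluorescein-poly-GluTyr, stock levels) for 10 min at room temperature. EDTA-quenched, detected by Tb-pY20 antibody TR-FRET (520/490 nm emission).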

EGFR Δ19/746/750 = EGFR Δ19/746/750 (Homo sapiens (Human), UniProt P00533, DEL746-750); assay: TR-FRET assay for ERBB kinases; assay type: biochemical; details: geometric mean if measured more than once
In short: as §2

EGFR Δ19/746/750 T790M = EGFR Δ19/746/750 T790M (Homo sapiens (Human), UniProt P00533, DEL746-750/T790M); assay: TR-FRET assay for ERBB kinases; assay type: biochemical; details: geometric mean if measured more than once
In short: as §2

HER2WT = HER2WT (Homo sapiens (Human), UniProt P04626); assay: TR-FRET assay for ERBB kinases; assay type: biochemical; details: geometric mean if measured more than once
Sequence of HER2WT (P04626 23-1255): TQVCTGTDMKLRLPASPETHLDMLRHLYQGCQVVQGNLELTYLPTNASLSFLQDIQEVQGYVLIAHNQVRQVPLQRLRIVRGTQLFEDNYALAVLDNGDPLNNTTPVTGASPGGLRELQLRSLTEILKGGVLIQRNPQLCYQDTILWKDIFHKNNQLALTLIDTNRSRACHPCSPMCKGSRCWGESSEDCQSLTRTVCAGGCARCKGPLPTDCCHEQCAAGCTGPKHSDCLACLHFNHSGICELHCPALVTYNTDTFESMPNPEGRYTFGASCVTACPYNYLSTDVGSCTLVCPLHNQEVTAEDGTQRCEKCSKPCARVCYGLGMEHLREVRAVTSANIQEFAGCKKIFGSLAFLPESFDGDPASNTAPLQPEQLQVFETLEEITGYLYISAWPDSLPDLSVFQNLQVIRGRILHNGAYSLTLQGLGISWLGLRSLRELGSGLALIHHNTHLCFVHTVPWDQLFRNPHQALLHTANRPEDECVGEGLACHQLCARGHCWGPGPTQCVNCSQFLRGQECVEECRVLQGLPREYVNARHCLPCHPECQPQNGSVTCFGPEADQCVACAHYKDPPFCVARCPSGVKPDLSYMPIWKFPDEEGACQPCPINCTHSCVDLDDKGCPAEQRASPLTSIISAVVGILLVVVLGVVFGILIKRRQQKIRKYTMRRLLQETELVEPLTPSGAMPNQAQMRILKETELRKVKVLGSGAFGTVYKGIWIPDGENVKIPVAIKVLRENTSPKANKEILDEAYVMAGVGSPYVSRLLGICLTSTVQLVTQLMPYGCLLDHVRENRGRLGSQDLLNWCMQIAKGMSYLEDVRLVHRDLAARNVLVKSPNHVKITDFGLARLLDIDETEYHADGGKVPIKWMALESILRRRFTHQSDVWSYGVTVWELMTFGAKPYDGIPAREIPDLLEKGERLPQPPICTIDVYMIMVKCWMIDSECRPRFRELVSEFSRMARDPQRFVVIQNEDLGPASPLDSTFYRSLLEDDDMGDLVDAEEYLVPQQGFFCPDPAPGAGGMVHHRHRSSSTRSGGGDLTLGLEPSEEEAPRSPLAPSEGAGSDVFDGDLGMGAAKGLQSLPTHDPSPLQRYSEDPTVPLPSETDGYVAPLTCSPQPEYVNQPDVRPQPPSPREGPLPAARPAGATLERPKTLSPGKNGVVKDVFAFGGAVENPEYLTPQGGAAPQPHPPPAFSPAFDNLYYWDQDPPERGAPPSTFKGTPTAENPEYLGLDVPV
In short: as §2

EGFR Exon20NPG = EGFR Exon20NPG (Homo sapiens (Human), UniProt P00533, INS770NPG); assay: TR-FRET assay for ERBB kinases; assay type: biochemical; details: geometric mean if measured more than once
In short: as §2

[2] = target: EGFR-wt (MDA-MB-231 or MCF7 or A549 or OVCAR8) (Homo sapiens (Human), UniProt P00533); assay: EGFR protein degradation assay (Western blot); assay type: cell-based; details: 72 hours, 300 nM to 10 nM
In short: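 Cells carrying the relevant EGFR form were plated at 300,000 per well in 6-well plates and left overnight to attach. For harvest, cells were rinsed once in ice-cold PBS and lysed in 400 μl lysis buffer containing protease inhibitors. Lysates were cleared at 10 000 rpm for 10 minutes and their protein content measured by BCA. Then 10 μg per sample was separated by SDS/PAGE at 165V for 2 hours, and EGFR was detected by ECL on a Chemidoc.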

EGFR Exon 20 ASV (HeLa*) = EGFR Exon 20 ASV (HeLa*) (Homo sapiens (Human), UniProt P00533, DUP767-769); assay: EGFR protein degradation assay (Western blot); assay type: cell-based; details: 72 hours, 300 nM to 10 nM
EGFR-Δ19 (HCC827) = EGFR-Δ19 (HCC827) (Homo sapiens (Human), UniProt P00533, DEL746-750); assay: EGFR protein degradation assay (Western blot); assay type: cell-based; details: 72 hours, 300 nM to 10 nM

Compound | EGFR protein remaining, EGFR L858R/T790M double mutant [1] | IC50 (HER2 InsYVMA) [µM] | IC50 (EGFR WT) [µM] | IC50 (EGFR L858R/T790M) [µM] | IC50 (EGFR L858R/T790M/C797S) [µM] | IC50 (EGFR L858R) [µM] | IC50 (EGFR Δ19/746/750) [µM] | IC50 (EGFR Δ19/746/750 T790M) [µM] | IC50 (HER2WT) [µM] | IC50 (EGFR Exon20NPG) [µM] | EGFR protein remaining, EGFR-wt [2] | EGFR protein remaining, EGFR Exon 20 ASV (EGFR Exon 20 ASV (HeLa*)) | EGFR protein remaining, EGFR-Δ19 (EGFR-Δ19 (HCC827))
COC1CCN(c2nccc(Nc3cc4c(cn3)nc(COCCOCCOCCOc3ccc5c(c3)C(=O)N(C3CCC(=O)NC3=O)C5=O)n4C(C)C)n2)CC1 (stereo not shown) [Example 70, 2-(2,6-dioxopiperidin-3-yl)-5-(2-(2-(2-((1-isopropyl-6-((2-(4-methoxypiperidin-1-yl)pyrimidin-4-yl)amino)-1H-imidazo[4,5-c]pyridin-2-yl)methoxy)ethoxy)ethoxy)ethoxy)isoindoline-1,3-dione] | C (>80% EGFR protein remaining after 72 hours of incubation with the test compound at a concentration of 300 nM) | 19 | > 30 | 15 | 16 | > 30 | > 30 | 11 | > 30 | – | – | – | –
COC1CCN(c2nccc(Nc3cc4c(cn3)nc(COCCN3CCN(c5ccc6c(c5)C(=O)N(C5CCC(=O)NC5=O)C6=O)CC3)n4C(C)C)n2)CC1 (stereo not shown) [Example 71, 2-(2,6-dioxopiperidin-3-yl)-5-(4-(2-((1-isopropyl-6-((2-(4-methoxypiperidin-1-yl)pyrimidin-4-yl)amino)-1H-imidazo[4,5-c]pyridin-2-yl)methoxy)ethyl)piperazin-1-yl)isoindoline-1,3-dione] | C (>80% EGFR protein remaining after 72 hours of incubation with the test compound at a concentration of 300 nM) | 13 | 30 | 0.12 | 0.096 | 26 | > 30 | 3.1 | > 30 | > 30 | – | – | –
Cc1ncsc1-c1ccc(CNC(=O)[C@@H]2C[C@@H](O)CN2C(=O)[C@@H](NC(=O)COCCOCCN2CCN(Cc3ccc(-c4cc5c(NCc6ccccc6Cl)ncnc5[nH]4)cc3)CC2)C(C)(C)C)cc1 [compound 4] | C (>80% EGFR protein remaining after 72 hours of incubation with the test compound at a concentration of 300 nM) | – | 0.045 | 22 | 10 | 0.0083 | 0.0042 | 24 | 1.8 | 0.29 | C (>80% EGFR protein remaining after 72 hours of incubation with the test compound at a concentration of 300 nM) | C (>80% EGFR protein remaining after 72 hours of incubation with the test compound at a concentration of 300 nM) | –
Cc1ncsc1-c1ccc(CNC(=O)[C@@H]2C[C@@H](O)CN2C(=O)[C@@H](NC(=O)COCCN2CCN(Cc3ccc(-c4cc5c(NCc6ccccc6Cl)ncnc5[nH]4)cc3)CC2)C(C)(C)C)cc1 [compound 5] | C (>80% EGFR protein remaining after 72 hours of incubation with the test compound at a concentration of 300 nM) | – | 0.04 | 19 | 5.4 | 0.011 | 0.0041 | 7.3 | 1.5 | 0.53 | C (>80% EGFR protein remaining after 72 hours of incubation with the test compound at a concentration of 300 nM) | C (>80% EGFR protein remaining after 72 hours of incubation with the test compound at a concentration of 300 nM) | –
O=C1CCC(N2C(=O)c3cccc(NCCOCCOCCOCCN4CCN(Cc5ccc(-c6cc7c(NCc8ccccc8Cl)ncnc7[nH]6)cc5)CC4)c3C2=O)C(=O)N1 (stereo not shown) [compound 6] | C (>80% EGFR protein remaining after 72 hours of incubation with the test compound at a concentration of 300 nM) | – | 0.064 | 8.9 | 3 | 0.047 | 0.0029 | 2.2 | 0.52 | 0.23 | C (>80% EGFR protein remaining after 72 hours of incubation with the test compound at a concentration of 300 nM) | C (>80% EGFR protein remaining after 72 hours of incubation with the test compound at a concentration of 300 nM) | –
COC1CCN(c2nccc(Nc3cc4c(cn3)nc(COCCOCCOCC(=O)N[C@H](C(=O)N3C[C@@H](O)C[C@@H]3C(=O)N[C@@H](C)c3ccc(-c5scnc5C)cc3)C(C)(C)C)n4C(C)C)n2)CC1 [compound 73] | C (>80% EGFR protein remaining after 72 hours of incubation with the test compound at a concentration of 300 nM) | 3.4 | 20 | 11 | 14 | 9.8 | 8.1 | 6.8 | > 30 | – | – | – | –
(2S,4R)-1-((S,E)-2-(tert-butyl)-16-((4-((4-chloro-3-fluorophenyl)amino)-7-methoxyquinazolin-6-yl)amino)-12-methyl-4,16-dioxo-6,9-dioxa-3,12-diazahexadec-14-enoyl)-4-hydroxy-N-(4-(4-methylthiazol-5-yl)benzyl)pyrrolidine-2-carboxamide [Example 41] | B (≤80% and >50% EGFR protein remaining after 72 hours of incubation with the test compound at a concentration between 300 nM and 10 nM) | – | – | – | – | – | – | – | – | – | A (≤50% EGFR protein remaining after 72 hours of incubation with the test compound at a concentration between 300 nM and 10 nM) | – | A (≤50% EGFR protein remaining after 72 hours of incubation with the test compound at a concentration between 300 nM and 10 nM)

— patent US10994015B2, “EGFR proteolysis targeting chimeric molecules and associated methods of use” (Arvinas Operations, Inc., priority 2016, dated 2021)
